Source: US10570129B2 (Zoetis Services LLC, priority 2015, dated 2020)

Legend:
D. immitis microfilariae = assay: Dirofilaria immitis, microfilariae (DiMF) in vitro motility assay; format: cell-based; settings: Dirofilaria immitis, 72 h, read-out: DiMF minimally effective dose (MEC)
Haemonchus contortus L3 = assay: microbe, parasite or virus in culture; format: cell-based; settings: Haemonchus contortus, 96 h, read-out: HcL3 Minimal Effective Concentration (MEC)

Row | Structure (SMILES) | minimal effective concentration (D. immitis microfilariae) | minimal effective concentration (Haemonchus contortus L3)
1 | N#Cc1ccc2c3c(n(C(=O)NCc4ccnc(Cl)c4)c2c1)CCN(C/C=C/c1ccc(Br)c(F)c1F)C3 [Example 14, (E)-2-(3-(4-bromo-2,3-difluorophenyl)allyl)-N-((2-chloropyridin-4-yl)methyl)-7-cyano-1,2,3,4-tetrahydro-5H-pyrido[4,3-b]indole-5-carboxamide] | > 100 µM | 0.5 µM
2 | N#Cc1ccc2c3c(n(C(=O)NCc4ccnc(Cl)c4)c2c1)CCN(C/C=C/c1ccc(Cl)c(F)c1F)C3 [Example 15, (E)-2-(3-(4-chloro-2,3-difluorophenyl)allyl)-N-((2-chloropyridin-4-yl)methyl)-7-cyano-1,2,3,4-tetrahydro-5H-pyrido[4,3-b]indole-5-carboxamide] | > 100 µM | 1 µM
3 | N#Cc1ccc2c3c(n(C(=O)NCc4ccnc(Cl)c4)c2c1)CCN(C/C=C/c1c(F)c(F)c(F)c(F)c1F)C3 [Example 16, (E)-N-((2-chloropyridin-4-yl)methyl)-7-cyano-2-(3-(perfluorophenyl)allyl)-1,2,3,4-tetrahydro-5H-pyrido[4,3-b]indole-5-carboxamide] | > 100 µM | > 100 µM
4 | N#Cc1ccc2c3c(n(C(=O)NCc4ccnc(Cl)c4)c2c1)CCN(C/C=C/c1c(F)c(F)c(Cl)c(F)c1F)C3 [Example 17, (E)-2-(3-(4-chloro-2,3,5,6-tetrafluorophenyl)allyl)-N-((2-chloropyridin-4-yl)methyl)-7-cyano-1,2,3,4-tetrahydro-5H-pyrido[4,3-b]indole-5-carboxamide] | > 100 µM | 1 µM
5 | N#Cc1ccc2c3c(n(C(=O)NCc4ccnc(Cl)c4)c2c1)CCN(C/C=C/c1ccc(F)cc1Cl)C3 [Example 24, (E)-2-(3-(2-chloro-4-fluorophenyl)allyl)-N-((2-chloropyridin-4-yl)methyl)-7-cyano-1,2,3,4-tetrahydro-5H-pyrido[4,3-b]indole-5-carboxamide] | 7.6 µM | 5.7 µM
6 | N#Cc1cccc2c1c1c(n2C(=O)NCc2ccnc(Cl)c2)CCN(C/C=C/c2ccc(F)cc2Cl)C1 [Example 25, (E)-2-(3-(2-chloro-4-fluorophenyl)allyl)-N-((2-chloropyridin-4-yl)methyl)-9-cyano-1,2,3,4-tetrahydro-5H-pyrido[4,3-b]indole-5-carboxamide] | 33 µM | > 100 µM
7 | N#Cc1ccc2c3c(n(C(=O)NCc4ccnc(Cl)c4)c2c1)CCN(C/C=C/c1ccc(F)cc1F)C3 [Example 26, (E)-N-((2-chloropyridin-4-yl)methyl)-7-cyano-2-(3-(2,4-difluorophenyl)allyl)-1,2,3,4-tetrahydro-5H-pyrido[4,3-b]indole-5-carboxamide] | 5.7 µM | 2.4 µM
8 | N#Cc1ccc2c3c(n(C(=O)NCc4ccnc(Cl)c4)c2c1)CCN(C/C=C/c1ccc(F)c(Cl)c1)C3 [Example 27, (E)-2-(3-(3-chloro-4-fluorophenyl)allyl)-N-((2-chloropyridin-4-yl)methyl)-7-cyano-1,2,3,4-tetrahydro-5H-pyrido[4,3-b]indole-5-carboxamide] | 1.8 µM | 1.8 µM
9 | N#Cc1ccc2c3c(n(C(=O)NCc4ccnc(Cl)c4)c2c1)CCN(C/C=C/c1ccc(F)c(F)c1)C3 [Example 28, (E)-N-((2-chloropyridin-4-yl)methyl)-7-cyano-2-(3-(3,4-difluorophenyl)allyl)-1,2,3,4-tetrahydro-5H-pyrido[4,3-b]indole-5-carboxamide] | 4.4 µM | 1.8 µM
10 | N#Cc1ccc2c3c(n(C(=O)NCc4ccnc(Cl)c4)c2c1)CCN(C/C=C/c1cccc(Cl)c1F)C3 [Example 31, (E)-2-(3-(3-chloro-2-fluorophenyl)allyl)-N-((2-chloropyridin-4-yl)methyl)-7-cyano-1,2,3,4-tetrahydro-5H-pyrido[4,3-b]indole-5-carboxamide] | > 100 µM | 1 µM
11 | N#Cc1ccc(/C=C/CN2CCc3c(c4ccc(C#N)cc4n3C(=O)NCc3ccnc(Cl)c3)C2)cc1 [Example 33, (E)-N-((2-chloropyridin-4-yl)methyl)-7-cyano-2-(3-(4-cyanophenyl)allyl)-1,2,3,4-tetrahydro-5H-pyrido[4,3-b]indole-5-carboxamide] | > 100 µM | 3.3 µM
12 | N#Cc1ccc2c3c(n(C(=O)NCc4ccnc(Cl)c4)c2c1)CCN(C/C=C/c1ccc(Cl)cc1)C3 [Example 34, (E)-2-(3-(4-chlorophenyl)allyl)-N-((2-chloropyridin-4-yl)methyl)-7-cyano-1,2,3,4-tetrahydro-5H-pyrido[4,3-b]indole-5-carboxamide] | 3.3 µM | 3.3 µM
13 | N#Cc1ccc2c3c(n(C(=O)NCc4ccnc(Cl)c4)c2c1)CCN(C/C=C/c1ccncc1)C3 [Example 37, (E)-N-((2-chloropyridin-4-yl)methyl)-7-cyano-2-(3-(pyridin-4-yl)allyl)-1,2,3,4-tetrahydro-5H-pyrido[4,3-b]indole-5-carboxamide] | 33 µM | > 100 µM
14 | N#Cc1ccc2c3c(n(C(=O)NCc4ccnc(F)c4)c2c1)CCN(C/C=C/c1cc(F)c(Cl)c(F)c1)C3 [Example 50, (E)-2-(3-(4-chloro-3,5-difluorophenyl)allyl)-7-cyano-N-((2-fluoropyridin-4-yl)methyl)-1,2,3,4-tetrahydro-5H-pyrido[4,3-b]indole-5-carboxamide] | 10 µM | 1.8 µM
15 | N#Cc1ccc2c3c(n(C(=O)NCc4ccnc(F)c4)c2c1)CCN(C/C=C/c1ccc(Cl)c(F)c1)C3 [Example 51, (E)-2-(3-(4-chloro-3-fluorophenyl)allyl)-7-cyano-N-((2-fluoropyridin-4-yl)methyl)-1,2,3,4-tetrahydro-5H-pyrido[4,3-b]indole-5-carboxamide] | 5.7 µM | 3.3 µM
16 | N#Cc1ccc2c3c(n(C(=O)NCc4ccnc(F)c4)c2c1)CCN(C/C=C/c1ccc(Cl)cc1F)C3 [Example 52, (E)-2-(3-(4-chloro-2-fluorophenyl)allyl)-7-cyano-N-((2-fluoropyridin-4-yl)methyl)-1,2,3,4-tetrahydro-5H-pyrido[4,3-b]indole-5-carboxamide] | 10 µM | 5.7 µM
17 | N#Cc1ccc2c3c(n(C(=O)NCc4ccnc(F)c4)c2c1)CCN(C/C=C/c1ccc(Cl)c(F)c1F)C3 [Example 53, (E)-2-(3-(4-chloro-2,3-difluorophenyl)allyl)-7-cyano-N-((2-fluoropyridin-4-yl)methyl)-1,2,3,4-tetrahydro-5H-pyrido[4,3-b]indole-5-carboxamide] | > 100 µM | 5.7 µM
18 | N#Cc1ccc2c3c(n(C(=O)NCc4ccnc(F)c4)c2c1)CCN(C/C=C/c1cc(F)cc(OC(F)(F)F)c1)C3 [Example 54, (E)-7-cyano-2-(3-(3-fluoro-5-(trifluoromethoxy)phenyl)allyl)-N-((2-fluoro-pyridin-4-yl)methyl)-1,2,3,4-tetrahydro-5H-pyrido[4,3-b]indole-5-carboxamide] | 10 µM | > 100 µM
19 | N#Cc1ccc2c3c(n(C(=O)NCc4ccnc(F)c4)c2c1)CCN(C/C=C/c1ccc(Cl)cc1)C3 [Example 55, (E)-2-(3-(4-chlorophenyl)allyl)-7-cyano-N-((2-fluoropyridin-4-yl)methyl)-1,2,3,4-tetrahydro-5H-pyrido[4,3-b]indole-5-carboxamide] | 10 µM | > 100 µM
20 | COc1cc(CNC(=O)n2c3c(c4ccc(C#N)cc42)CN(C/C=C/c2ccc(Cl)c(F)c2)CC3)ccn1 [Example 59, (E)-2-(3-(4-chloro-3-fluorophenyl)allyl)-7-cyano-N-((2-methoxypyridin-4-yl)methyl)-1,2,3,4-tetrahydro-5H-pyrido[4,3-b]indole-5-carboxamide] | 10 µM | 7.7 µM
21 | N#Cc1ccc2c3c(n(C(=O)NCc4ccnc(C(F)(F)F)c4)c2c1)CCN(C/C=C/c1ccc(Cl)c(F)c1)C3 [Example 60, (E)-2-(3-(4-chloro-3-fluorophenyl)allyl)-7-cyano-N-((2-(trifluoromethyl)pyridin-4-yl)methyl)-1,2,3,4-tetrahydro-5H-pyrido[4,3-b]indole-5-carboxamide] | 13.5 µM | 4.4 µM
22 | COc1cc(CNC(=O)n2c3c(c4cc(C#N)ccc42)CN(C/C=C/c2ccc(Cl)c(F)c2)CC3)ccn1 [Example 64, (E)-2-(3-(4-chloro-3-fluorophenyl)allyl)-8-cyano-N-((2-methoxypyridin-4-yl)methyl)-1,2,3,4-tetrahydro-5H-pyrido[4,3-b]indole-5-carboxamide] | 3.3 µM | 0.5 µM
23 | COc1cc(CNC(=O)n2c3c(c4cc(C#N)ccc42)CN(C/C=C/c2ccc(F)c(Cl)c2)CC3)ccn1 [Example 68, (E)-2-(3-(3-chloro-4-fluorophenyl)allyl)-8-cyano-N-((2-methoxypyridin-4-yl)methyl)-1,2,3,4-tetrahydro-5H-pyrido[4,3-b]indole-5-carboxamide] | 0.03 µM | 0.01 µM
24 | COc1cc(CNC(=O)n2c3c(c4cc(C#N)ccc42)CN(C/C=C/c2ccc(Cl)c(Cl)c2)CC3)ccn1 [Example 69, (E)-8-cyano-2-(3-(3,4-dichlorophenyl)allyl)-N-((2-methoxypyridin-4-yl)methyl)-1,2,3,4-tetrahydro-5H-pyrido[4,3-b]indole-5-carboxamide] | 0.03 µM | 0.02 µM
25 | N#Cc1ccc2c(c1)c1c(n2C(=O)NCc2ccnc(Cl)c2)CCN(C/C=C/c2cc(F)c(Cl)c(F)c2)C1 [Example 71, (E)-2-(3-(4-chloro-3,5-difluorophenyl)allyl)-N-((2-chloropyridin-4-yl)methyl)-8-cyano-1,2,3,4-tetrahydro-5H-pyrido[4,3-b]indole-5-carboxamide] | > 100 µM | 0.2 µM
